From patent US12157730B2, “Heteroaryl derivative, method for producing same, and pharmaceutical composition comprising same as effective component” (VORONOI INC., priority 2019, dated 2024) come the findings set out here.

This test concerns the target T1, Ba/F3 cell EGFR Exon20 ins NPH (Homo sapiens, UniProt P00533, INS773NPH).
T1 construct: expressed in transfected cells; host or cells: Ba/F3
As to the kind of experiment: Ba/F3 cell proliferation suppression, EGFR Exon20 ins NPH. The format is cell-based. Particulars: GI50 class; Ba/F3 cell line with NPH inserted at Exon20 of EGFR; 72 hours. A digest of the protocol: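 72 h compound exposure, 0.3 nM–50 um (12 points, 3:1 dilution in DMSO); viability by CellTiter-Glo luminescence. Ba/F3 medium: RPMI-1640, 10% FBS, 5 ng/ml IL-3, 1 ug/ml puromycin for transduced cells. GI50 vs control, n=3.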
In the case of `C=CC(=O)Nc1cc(Nc2cc(N3OCC[C@@H]3c3ccc(C)nc3)ncn2)c(OC)cc1N1CCOCC1` [Example 43], the “Ba/F3 (NPH) Activity” value is “B (50 nM ≤ GI50 < 500 nM)”. On to `C=CC(=O)Nc1cc(Nc2cc(N3OCC[C@@H]3c3cccc(Cl)c3F)ncn2)c(OC)cc1N1CCC(N2CCCN(C3CC3)CC2)CC1` [compound 358, N-(5-((6-((R)-3-(3-chloro-2-fluorophenyl)isoxazolidine-2-yl)pyrimidine-4-yl)amino)-2-(4-(4-cyclopropyl-1,4-diazepane-1-yl)piperidine-1-yl)-4-methoxyphenyl) acrylamide], for which the “Ba/F3 (NPH) Activity” value is “A (GI50 < 50 nM)”. As for `C=CC(=O)Nc1cc(Nc2cc(N3OCC[C@@H]3c3cccc(Cl)c3Cl)ncn2)c(OC)cc1N1CCN(C2CCCC2)CC1` [compound 563, N-(2-(4-cyclopentylpiperazine-1-yl)-5-((6-((R)-3-(2,3-dichlorophenyl)isoxazolidine-2-yl)pyrimidine-4-yl)amino)-4-methoxyphenyl) acrylamide], the “Ba/F3 (NPH) Activity” value was “A (GI50 < 50 nM)”. Under `C=CC(=O)Nc1cc(Nc2cc(N3OCC[C@@H]3c3cccc(C)c3F)ncn2)c(OC)cc1N1CCC(N2CCN(CC)CC2)CC1` [compound 318, N-(2-(4-(4-ethylpiperazine-1-yl)piperidine-1-yl)-5-((6-((R)-3-(2-fluoro-3-methylphenyl)isoxazolidine-2-yl)pyrimidine-4-yl)amino)-4-methoxyphenyl) acrylamide] stands “A (GI50 < 50 nM)”; under `C=CCN1CCN(C2CCN(c3cc(OC)c(Nc4cc(N5OCC[C@@H]5c5cccc(Cl)c5C)ncn4)cc3NC(=O)C=C)CC2)CC1` [Example 213, N-(2-(4-(4-allylpiperazine-1-yl)piperidine-1-yl)-5-((6-((R)-3-(3-chloro-methylphenyl)isoxazolidine-2-yl)pyrimidine-4-yl)amino)-4-methoxyphenyl) acrylamide], “A (GI50 < 50 nM)”; under `C=CC(=O)Nc1cc(Nc2cc(N3OCC[C@@H]3c3ccc(Cl)c(F)c3)ncn2)c(OC)cc1N(C)CCOC` [compound 853, N-(5-((6-((R)-3-(4-chloro-3-fluorophenyl)isoxazolidine-2-yl)pyrimidine-4-yl)amino)-4-methoxy-2-((2-methoxyethyl)(methyl)amino)phenyl) acrylamide], “B (50 nM ≤ GI50 < 500 nM)”. `C=CC(=O)Nc1cc(Nc2cc(N3OCC[C@@H]3c3ccc(Cl)c(F)c3)ncn2)c(OC)cc1N1CCC(N2C[C@@H]3C[C@H]2CN3C)CC1` [compound 857, N-(5-((6-((R)-3-(4-chloro-3-fluorophenyl)isoxazolidine-2-yl)pyrimidine-4-yl)amino)-4-methoxy-2-(4-((1S,4S)-5-methyl-2,5-diazabicyclo[2.2.1]heptane-2-yl)piperidine-1-yl)phenyl)acrylamide]: the “Ba/F3 (NPH) Activity” value was “A (GI50 < 50 nM)”. Under `C=CC(=O)Nc1cc(Nc2cc(N3OCC[C@@H]3c3ccc(Cl)cc3)ncn2)c(OC)cc1N1CCC(N2CCN(C3CCC3)CC2)CC1` [Example 75, N-(5-((6-((R)-3-(4-chlorophenyl)isoxazolidine-2-yl)pyrimidine-4-yl)amino)-2-(4-(4-cyclobutylpiperazine-1-yl)piperidine-1-yl)-4-methoxyphenyl) acrylamide] stands “A (GI50 < 50 nM)”; under `C=CC(=O)Nc1cc(Nc2cc(N3OCC[C@@H]3c3cccc(F)c3F)ncn2)c(OC)cc1N1CCN(C)CC1` [compound 925, N-(5-((6-((R)-3-(2,3-difluorophenyl)isoxazolidine-2-yl)pyrimidine-4-yl)amino)-4-methoxy-2-(4-methylpiperazine-1-yl)phenyl)acrylamide], “A (GI50 < 50 nM)”; under `C=CC(=O)Nc1cc(Nc2cc(N3OCC[C@@H]3c3ccc(Cl)c(F)c3)ncn2)c(OC)cc1N1CCC(N2C[C@H]3C[C@@H]2CO3)CC1` [Example 256, N-(2-(4-((1R,4R)-2-oxa-5-azabicyclo[2.2.1]heptane-5-yl)piperidine-1-yl)-5-((6-((R)-3-(4-chloro-3-fluorophenyl)isoxazolidine-2-yl)pyrimidine-4-yl)amino)-4-methoxyphenyl) acrylamide], “A (GI50 < 50 nM)”. For `C=CC(=O)Nc1cc(Nc2cc(N3OCC[C@@H]3c3cc(F)ccc3F)ncn2)c(OC)cc1N1CCC(N2CC[C@H](N(C)C)C2)CC1` [compound 816, N-(5-((6-((R)-3-(2,5-difluorophenyl)isoxazolidine-2-yl)pyrimidine-4-yl)amino)-2-(4-((S)-3-(dimethylamino)pyrolidine-1-yl)piperidine-1-yl)-4-methoxyphenyl) acrylamide], the “Ba/F3 (NPH) Activity” value is recorded as “A (GI50 < 50 nM)”.

On to `C=CC(=O)Nc1cc(Nc2cc(N3OCC[C@@H]3c3ccc(C)nc3)ncn2)c(OC)cc1N1CCC(N2C[C@@H]3C[C@H]2CO3)CC1` [Example 228, N-(2-(4-((1S,4S)-2-oxa-5-azabicyclo[2.2.1]heptane-5-yl)piperidine-1-yl)-4-methoxy-5-((6-((R)-3-(6-methylpyridine-3-yl)isoxazolidine-2-yl)pyrimidine-4-yl)amino)phenyl)acrylamide], for which the “Ba/F3 (NPH) Activity” value is “A (GI50 < 50 nM)”. As for `C=CC(=O)Nc1cc(Nc2cc(N3OCC[C@@H]3c3ccc(F)c(Cl)c3)ncn2)c(OC)cc1N1C[C@H]2CCN(C)[C@H]2C1` [compound 317, N-(5-((6-((R)-3-(3-chloro-4-fluorophenyl)isoxazolidine-2-yl)pyrimidine-4-yl)amino)-4-methoxy-2-((3aR, 6aR)-1-methylhexahydropyrrolo [3,4-b]pyrrole-5(1H)-yl)phenyl)acrylamide], the “Ba/F3 (NPH) Activity” value was “A (GI50 < 50 nM)”. Consider `C=CC(=O)Nc1cc(Nc2cc(N3OCC[C@@H]3c3cc(F)ccc3F)ncn2)c(OC)cc1N1CCN(CC)CC1` [compound 849, N-(5-((6-((R)-3-(2,5-difluorophenyl)isoxazolidine-2-yl)pyrimidine-4-yl)amino)-2-(4-ethylpiperazine-1-yl)-4-methoxyphenyl) acrylamide], for which the “Ba/F3 (NPH) Activity” value is given as “A (GI50 < 50 nM)”. In the case of `C=CC(=O)Nc1cc(Nc2cc(N3OCC[C@@H]3Cc3ccccc3)ncn2)c(OC)cc1N1CCN(C(C)=O)CC1` [compound 948, N-(2-(4-acetylpiperazine-1-yl)-5-((6-((S)-3-benzylisoxazolidine-2-yl)pyrimidine-4-yl)amino)-4-methoxyphenyl) acrylamide], the “Ba/F3 (NPH) Activity” value is “A (GI50 < 50 nM)”. As to `C=CC(=O)Nc1cc(Nc2cc(N3OCC[C@@H]3c3cccc(Cl)c3C)ncn2)c(OC)cc1N1CCC(N2CCO[C@@H](C)C2)CC1` [compound 529, N-(5-((6-((R)-3-(3-chloro-2-methylphenyl)isoxazolidine-2-yl)pyrimidine-4-yl)amino)-4-methoxy-2-(4-((S)-2-methylmorpholino)piperidine-1-yl)phenyl) acrylamide], the “Ba/F3 (NPH) Activity” value is “A (GI50 < 50 nM)”.

Consider `C=CC(=O)Nc1cc(Nc2cc(N3OCC[C@@H]3c3cccc(Cl)c3C)ncn2)c(OC)cc1N1CCC(N2CCN(C3CCC3)CC2)CC1` [Example 188, N-(5-((6-((R)-3-(3-chloro-2-methylphenyl)isoxazolidine-2-yl)pyrimidine-4-yl)amino)-2-(4-(4-cyclobutylpiperazine-1-yl)piperidine-1-yl)-4-methoxyphenyl) acrylamide], for which the “Ba/F3 (NPH) Activity” value is listed as “A (GI50 < 50 nM)”. Under `C=CC(=O)Nc1cc(Nc2cc(N3OCC[C@@H]3c3ccc(F)cc3F)ncn2)c(OC)cc1N1CCN(CC2CC2)CC1` [compound 380, N-(2-(4-(cyclopropylmethyl)piperazine-1-yl)-5-((6-((R)-3-(2,4-difluorophenyl)isoxazolidine-2-yl)pyrimidine-4-yl)amino)-4-methoxyphenyl) acrylamide] stands “A (GI50 < 50 nM)”; under `C=CC(=O)Nc1cc(Nc2cc(N3OCC[C@@H]3c3ccc(Cl)cc3F)ncn2)c(OC)cc1N1CC[C@@H](N(C)C)C1` [compound 456, N-(5-((6-((R)-3-(4-chloro-2-fluorophenyl)isoxazolidine-2-yl)pyrimidine-4-yl)amino)-2-((R)-3-(dimethylamino)pyrolidine-1-yl)-4-methoxyphenyl) acrylamide], “A (GI50 < 50 nM)”; under `C=CCN1CCN(C2CCN(c3cc(OC)c(Nc4cc(N5OCC[C@@H]5c5cccc(C#N)c5)ncn4)cc3NC(=O)C=C)CC2)CC1` [Example 210, N-(2-(4-(4-allylpiperazine-1-yl)piperidine-1-yl)-5-((6-((R)-3-(3-cyanophenyl)isoxazolidine-2-yl)pyrimidine-4-yl)amino)-4-methoxyphenyl) acrylamide], “A (GI50 < 50 nM)”.

For the compound `C=CCN1CCN(C2CCN(c3cc(OC)c(Nc4cc(N5OCC[C@@H]5c5cc(F)ccc5F)ncn4)cc3NC(=O)C=C)CC2)CC1` [Example 88, N-(2-(4-(4-allylpiperazine-1-yl)piperidine-1-yl)-5-((6-((R)-3-(2,5-difluorophenyl)isoxazolidine-2-yl)pyrimidine-4-yl)amino)-4-methoxyphenyl) acrylamide], the “Ba/F3 (NPH) Activity” value is “A (GI50 < 50 nM)”. The entry for `C=CC(=O)Nc1cc(Nc2cc(N3OCC[C@H]3c3c(F)cccc3F)ncn2)c(OC)cc1N1C[C@@H]2CCN(C)[C@@H]2C1` [compound 899, N-(5-((6-((S)-3-(2,6-difluorophenyl)isoxazolidine-2-yl)pyrimidine-4-yl)amino)-4-methoxy-2-((3aS,6aS)-1-methylhexahydropyrrolo [3,4-b]pyrrole-5(1H)-yl)phenyl) acrylamide] is “C (500 nM ≤ GI50 < 5000 nM)”; for `C=CC(=O)Nc1cc(Nc2cc(N3OCC[C@@H]3c3ccccc3)ncn2)c(OC)cc1N1CCC(N2C[C@@H]3C[C@H]2CN3CC)CC1` [compound 737, N-(2-(4-((1S,4S)-5-ethyl-2,5-diazabicyclo [2.2.1]heptane-2-yl)piperidine-1-yl)-4-methoxy-5-((6-((R)-3-phenylisoxazolidine-2-yl)pyrimidine-4-yl)amino)phenyl) acrylamide] it is “A (GI50 < 50 nM)”.
